≈ marks a conversion by molar mass, not a printed value. Some results are limits rather than exact numbers.

For orientation: IC50 means the concentration that inhibits the measured activity by half. The MIC is the least concentration at which growth counts as inhibited.

Sequence of E. coli UDP-N-acetylglucosamine enolpyruvoyl transferase, MurA (P0A749 whole entry): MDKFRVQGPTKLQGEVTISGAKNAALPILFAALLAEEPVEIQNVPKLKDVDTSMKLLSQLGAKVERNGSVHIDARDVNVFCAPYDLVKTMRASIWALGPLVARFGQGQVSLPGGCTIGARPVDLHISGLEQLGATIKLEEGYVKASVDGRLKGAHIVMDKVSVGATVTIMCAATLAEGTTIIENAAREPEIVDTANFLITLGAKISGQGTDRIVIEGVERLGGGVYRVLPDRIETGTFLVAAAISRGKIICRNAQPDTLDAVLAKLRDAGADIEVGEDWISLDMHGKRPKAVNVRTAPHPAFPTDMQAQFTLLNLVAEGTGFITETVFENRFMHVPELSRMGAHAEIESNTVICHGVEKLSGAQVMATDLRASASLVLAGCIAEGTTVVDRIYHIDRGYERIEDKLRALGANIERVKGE
Sequence of E. coli Uridine-diphosphate-N-acetvimuramoyl: L-alanine lipase, MurC (P17952 whole entry): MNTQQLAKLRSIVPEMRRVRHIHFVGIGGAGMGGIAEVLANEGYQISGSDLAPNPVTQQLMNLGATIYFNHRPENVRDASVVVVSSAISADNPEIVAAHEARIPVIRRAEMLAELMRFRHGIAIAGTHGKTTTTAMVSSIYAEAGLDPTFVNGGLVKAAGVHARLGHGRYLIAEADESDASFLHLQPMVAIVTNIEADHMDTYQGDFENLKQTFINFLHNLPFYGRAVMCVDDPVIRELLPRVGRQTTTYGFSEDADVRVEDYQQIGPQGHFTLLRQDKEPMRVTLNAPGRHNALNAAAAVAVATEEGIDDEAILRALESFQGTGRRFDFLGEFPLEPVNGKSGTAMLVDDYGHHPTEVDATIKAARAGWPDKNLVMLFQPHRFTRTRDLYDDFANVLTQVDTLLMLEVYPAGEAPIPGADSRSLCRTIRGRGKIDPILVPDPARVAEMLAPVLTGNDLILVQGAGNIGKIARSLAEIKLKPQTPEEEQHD
Sequence of E. coli Enopyruvyl-UPD-N-acetylglucosamine reductase, Mur B (P08373 whole entry): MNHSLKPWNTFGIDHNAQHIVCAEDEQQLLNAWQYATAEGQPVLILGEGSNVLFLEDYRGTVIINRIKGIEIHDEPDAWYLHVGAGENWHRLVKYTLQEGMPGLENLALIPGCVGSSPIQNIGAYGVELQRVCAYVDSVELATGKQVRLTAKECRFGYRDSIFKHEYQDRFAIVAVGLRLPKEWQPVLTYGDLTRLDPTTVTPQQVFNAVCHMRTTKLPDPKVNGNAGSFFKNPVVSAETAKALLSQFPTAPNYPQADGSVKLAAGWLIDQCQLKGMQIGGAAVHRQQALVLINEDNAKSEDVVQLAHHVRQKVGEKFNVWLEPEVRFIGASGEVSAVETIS
Sequence of E. coli Uridine-diphosphate-N-acetylmuramoyl-L-alanine: D-glutamate liease, MurD (P14900 whole entry): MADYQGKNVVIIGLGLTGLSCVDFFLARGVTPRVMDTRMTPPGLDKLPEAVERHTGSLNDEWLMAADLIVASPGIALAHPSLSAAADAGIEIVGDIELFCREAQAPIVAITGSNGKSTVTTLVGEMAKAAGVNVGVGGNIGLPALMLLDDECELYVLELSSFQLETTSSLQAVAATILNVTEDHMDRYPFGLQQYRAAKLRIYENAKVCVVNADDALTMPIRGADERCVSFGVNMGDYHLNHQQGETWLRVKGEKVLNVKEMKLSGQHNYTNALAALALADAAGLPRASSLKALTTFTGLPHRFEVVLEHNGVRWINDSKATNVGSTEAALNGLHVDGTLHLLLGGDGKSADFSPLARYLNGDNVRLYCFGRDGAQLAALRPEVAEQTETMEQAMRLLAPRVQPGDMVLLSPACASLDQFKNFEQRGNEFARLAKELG

One assay addresses E. coli UDP-N-acetylglucosamine enolpyruvoyl transferase, MurA (Escherichia coli, UniProt P0A749). Nature of the assay: biochemical. Conditions: (E) E. coli enzyme. Here is the method: Evaluation of the Inhibitory Activity of Test Compounds Against Enzymes which Catalyze Bacterial Cell Wall Biosynthesis
S. aureus and E. coli UDP-N-acetylglucosamine enolpyruvoyl transferase, MurA
(§1) Preparation of Enzyme Solution:
The enzyme solution is prepared by admixing the following: 50 mM Tris/HCl pH 8.0, […] 1 M Tris, 5 mM DTT, […] 1 M DTT, 20% Glycerol 4 ml 50% Glycerol, add water to 10 ml.
(§2) Preparation of Stop Solution:
A procedure similar to that described by C. […] Experiments are performed by adding a solution of test compound (in a mixture of dimethylsulfoxide and water) and an enzyme solution to a well. After a pre-incubation period of 10 mintues at 37° C., Tris/BME buffer and assay buffer are added. A start point optical density (OD0) reading is taken at 340 nm immediately following the addition of assay buffer. After incubation for 1 hr at 37° C., the stop solution is added and the color is allowed to develop for 30 minutes.
As to `O=C1O/C(=C\c2cc(C(F)(F)F)ccc2Cl)C(O)=C1c1ccc(-c2ccccc2)c(F)c1` [Example 126], the “MurA IC50” value is recorded as 3 (E) μg/mL.

`CCCc1ccc(-c2ccc(C3=C(O)/C(=C/c4cc(C(F)(F)F)ccc4Cl)OC3=O)cc2)cc1` [Example 127]: it took 8.25 µM to reach half-maximal inhibition (IC50).

For the compound `CC(C)(C)c1ccc(-c2ccc(C3=C(O)/C(=C/c4cc(C(F)(F)F)ccc4Cl)OC3=O)cc2)cc1` [Example 128], the IC50 was 8.02 µM.

The target of a further assay is E. coli Enopyruvyl-UPD-N-acetylglucosamine reductase, Mur B (Escherichia coli, UniProt P08373). Nature of the assay: biochemical. Conditions: (E) E. coli enzyme. How it is done:
S. aureus and E. coli Enopyruvyl-UPD-N-acetylglucosamine reductase, Mur B
Preparation of Tris/BME buffer:
Dilute 17.5 uL of aqueous 5 mM BME (2-mercaptoethanol) to 50 mL with 50 mM Tris/HCl (pH 8.0).
as §1
Dilute aqueous MurB stock solution (0.94 mg/mL) with 200 parts 50 mM Tris/2-BME buffer.
Synthesis of Substrate for MurB (MurA Product EP-UDP-GluNAc):
A mixture of 13 mg UDP-N-acetylglucosamine and 5.5 mg phosphoenolpyruvate are dissolved in 10 mL Tris/BME buffer forming 2 mM concentrations of each reagent in solution.
Preparation of Assay Buffer:
The assay buffer is prepared in water from reagents with the following final concentrations: 100 mM Tris/HCl (pH 8.0), 200 μM NADPH, 100 μM MurB substrate, 10 μM 2-mercaptoethanol, and 10 μM KCl.
Experiments are performed by adding 20 μL of a solution of test compound in a mixture of dimethylsulfoxide and water and 30 μL of enzyme solution to a well. After a pre-incubation period of 20 mins. at 23° C., 50 μL of Tris/BME buffer and 100 μL of assay buffer are added. […] Controls are performed using the same procedure and employing 20 μL of a blank dimethylsulfonide and solvent mixture in place of the test compound solution.
Using these values, the IC50 for each test compound is determined by linear regression analysis.
For the compound `O=C1O/C(=C\c2cc(C(F)(F)F)ccc2Cl)C(O)=C1c1ccc(-c2ccccc2)c(F)c1` [Example 126], the “MurB IC50” value is 1 (E) μg/mL.

The same assay, now with this note: (E) E. coli enzyme; read-out: MurB IC50 (converted).
On to `CCCc1ccc(-c2ccc(C3=C(O)/C(=C/c4cc(C(F)(F)F)ccc4Cl)OC3=O)cc2)cc1` [Example 127], for which the IC50 is 12.4 µM.

For `CC(C)(C)c1ccc(-c2ccc(C3=C(O)/C(=C/c4cc(C(F)(F)F)ccc4Cl)OC3=O)cc2)cc1` [Example 128], the IC50 is 10 µM.

Another assay addresses E. coli Uridine-diphosphate-N-acetvimuramoyl: L-alanine lipase, MurC (Escherichia coli, UniProt P17952). Nature of the assay: Inhibitory activity against MurC (E. coli). The class given is biochemical. As to conditions: (E) E. coli enzyme.
For `O=C1O/C(=C\c2cc(C(F)(F)F)ccc2Cl)C(O)=C1c1ccc(-c2ccccc2)c(F)c1` [Example 126], the “MurC IC50” value is reported as 5 (E) μg/mL.

The same assay, now with this note: (E) E. coli enzyme; read-out: MurC IC50 (converted).
`CCCc1ccc(-c2ccc(C3=C(O)/C(=C/c4cc(C(F)(F)F)ccc4Cl)OC3=O)cc2)cc1` [Example 127]: the concentration for half-maximal inhibition (IC50) was > 51.6 µM.

In the case of `CC(C)(C)c1ccc(-c2ccc(C3=C(O)/C(=C/c4cc(C(F)(F)F)ccc4Cl)OC3=O)cc2)cc1` [Example 128], the IC50 is 48.1 µM.

Another assay addresses E. coli Uridine-diphosphate-N-acetylmuramoyl-L-alanine: D-glutamate liease, MurD (Escherichia coli, UniProt P14900). Nature of the assay: biochemical. As to conditions: (E) E. coli enzyme. Here is the method: S. aureus and E. coli Uridine-diphosphate-N-acetylmuramoyl-L-alanine: D-glutamate liease, MurD
The buffer is prepared from aqueous reagents with the following final concentrations: 83 mM Tris/HCl (pH 8.0), 50 mM MgCl2, and 2 mM ATP.
as §1
Preparation of Test Compound Solutions:
All test solutions are prepared in DMSO as 10 mg/mL, then diluted with 50 mM Tris/HCl (pH 8.5) to 100 μg/mL.
as §2
In this evaluation, the inhibitory activity of a test compound against MurD, the enzyme which catalyzes the fourth step of bacterial cell wall biosynthesis is determined.
With `O=C1O/C(=C\c2cc(C(F)(F)F)ccc2Cl)C(O)=C1c1ccc(-c2ccccc2)c(F)c1` [Example 126], the “MurD IC50” value is listed as 9 (E) μg/mL.

As to `CCCc1ccc(-c2ccc(C3=C(O)/C(=C/c4cc(C(F)(F)F)ccc4Cl)OC3=O)cc2)cc1` [Example 127], the IC50 was > 51.6 µM.

With `CC(C)(C)c1ccc(-c2ccc(C3=C(O)/C(=C/c4cc(C(F)(F)F)ccc4Cl)OC3=O)cc2)cc1` [Example 128], the IC50 was > 50.1 µM.

The subject of another assay is staphylococci. Nature of the assay: Minimum inhibitory concentration, microdilution broth method, staphylococci. The class given is cell-based. As to conditions: Staphylococcus aureus, S. aureus GC 1131; Mueller-Hinton broth, 18-22 hours at 35° C.; read-out: MIC S. aureus GC 1131. Put shortly:
(§3)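 MIC by microdilution, NCCLS M7-A5. Media: MH broth (staph, enterococci); MH + 5% lysed horse blood (strep). Strains incl. methicillin-, penicillin- and/or vancomycin-resistant clinical isolates.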
With `O=C1O/C(=C\c2cc(C(F)(F)F)ccc2Cl)C(O)=C1c1ccc(-c2ccccc2)c(F)c1` [Example 126], the MIC stood at 1 µg/mL (≈ 2.17 µM).

As for `CCCc1ccc(-c2ccc(C3=C(O)/C(=C/c4cc(C(F)(F)F)ccc4Cl)OC3=O)cc2)cc1` [Example 127], the MIC amounted to 4 µg/mL (≈ 8.25 µM).

In the case of `CC(C)(C)c1ccc(-c2ccc(C3=C(O)/C(=C/c4cc(C(F)(F)F)ccc4Cl)OC3=O)cc2)cc1` [Example 128], the MIC is 8 µg/mL (≈ 16 µM).

The assay is the same for the next values; noted with them: Staphylococcus aureus, S. aureus GC 4543; Mueller-Hinton broth, 18-22 hours at 35° C.; read-out: MIC S. aureus GC 4543.
`O=C1O/C(=C\c2cc(C(F)(F)F)ccc2Cl)C(O)=C1c1ccc(-c2ccccc2)c(F)c1` [Example 126]: the MIC came out at 1 µg/mL (≈ 2.17 µM).

With `CCCc1ccc(-c2ccc(C3=C(O)/C(=C/c4cc(C(F)(F)F)ccc4Cl)OC3=O)cc2)cc1` [Example 127], the MIC is 2 µg/mL (≈ 4.12 µM).

As for `CC(C)(C)c1ccc(-c2ccc(C3=C(O)/C(=C/c4cc(C(F)(F)F)ccc4Cl)OC3=O)cc2)cc1` [Example 128], the MIC was 4 µg/mL (≈ 8.02 µM).

Another assay relates to enterococci. Nature of the assay: Minimum inhibitory concentration, microdilution broth method, enterococci. The format is cell-based. As to conditions: Enterococcus faecalis, E. faecalis GC 2242; Mueller-Hinton broth, 18-22 hours at 35° C.; read-out: MIC E. faecalis GC 2242. Put shortly: as §3
(In general: In broth dilution the organism is exposed to a series of concentrations in liquid medium.)
For `O=C1O/C(=C\c2cc(C(F)(F)F)ccc2Cl)C(O)=C1c1ccc(-c2ccccc2)c(F)c1` [Example 126], the MIC stood at 1 µg/mL (≈ 2.17 µM).

`CCCc1ccc(-c2ccc(C3=C(O)/C(=C/c4cc(C(F)(F)F)ccc4Cl)OC3=O)cc2)cc1` [Example 127]: the minimum inhibitory concentration (MIC) worked out at 2 µg/mL (≈ 4.12 µM).

Regarding `CC(C)(C)c1ccc(-c2ccc(C3=C(O)/C(=C/c4cc(C(F)(F)F)ccc4Cl)OC3=O)cc2)cc1` [Example 128], the MIC amounted to 2 µg/mL (≈ 4.01 µM).

Staying with this assay, now noted: Enterococcus faecalis, E. faecalis GC 4555; Mueller-Hinton broth, 18-22 hours at 35° C.; read-out: MIC E. faecalis GC 4555.
For the compound `O=C1O/C(=C\c2cc(C(F)(F)F)ccc2Cl)C(O)=C1c1ccc(-c2ccccc2)c(F)c1` [Example 126], the MIC is 4 µg/mL (≈ 8.68 µM).

In the case of `CCCc1ccc(-c2ccc(C3=C(O)/C(=C/c4cc(C(F)(F)F)ccc4Cl)OC3=O)cc2)cc1` [Example 127], the MIC was 4 µg/mL (≈ 8.25 µM).

Turning to `CC(C)(C)c1ccc(-c2ccc(C3=C(O)/C(=C/c4cc(C(F)(F)F)ccc4Cl)OC3=O)cc2)cc1` [Example 128], the MIC is 8 µg/mL (≈ 16 µM).

The test system of a further assay is Streptococci. Nature of the assay: Minimum inhibitory concentration, microdilution broth method, streptococci. The format is cell-based. Conditions: S. pneumo GC 1894; Mueller-Hinton broth with 5% horse blood, 18-22 hours at 35° C. Put shortly:
as §3
As to `O=C1O/C(=C\c2cc(C(F)(F)F)ccc2Cl)C(O)=C1c1ccc(-c2ccccc2)c(F)c1` [Example 126], the MIC came to 0.25 µg/mL (≈ 0.543 µM).

The compound `CCCc1ccc(-c2ccc(C3=C(O)/C(=C/c4cc(C(F)(F)F)ccc4Cl)OC3=O)cc2)cc1` [Example 127] came in with an MIC of 0.25 µg/mL (≈ 0.516 µM).

Turning to `CC(C)(C)c1ccc(-c2ccc(C3=C(O)/C(=C/c4cc(C(F)(F)F)ccc4Cl)OC3=O)cc2)cc1` [Example 128], the MIC stood at 0.25 µg/mL (≈ 0.501 µM).
